Values of other authors, collected in patent publication US20180016637A1, “METHOD OF EVALUATING THE RESPONSE OF ATAXIA TELANGIECTASIA PATIENTS TO GLUCOCORTICOIDS TREATMENT” (EryDel S.p.A., priority 2015, published 2018).

Test system: lymphoblastoid cell lines from lymphocytes of A-T patients

Compound: C[C@@H]1C[C@H]2[C@@H]3CCC4=CC(=O)C=C[C@]4(C)[C@@]3(F)[C@@H](O)C[C@]2(C)[C@@]1(O)C(=O)COP(=O)(O)O [Dexamethasone sodium phosphate]
- transcript induced in vitro: a transcript of about 1582 bp denominated ATMdexa1
